One experiment relates to gp91phox. The experiment in a line: gp91phox expression in substantia nigra, Western blot and DAB immunostaining. It is filed as in vivo, C57BL/6 mice. The method, then: For checking inflammatory and oxidative stress markers, mice were gavaged diapocynin (300 mg/kg dose) 1 day before MPTP treatment (pre-treatment) and continued for another 4 days of co-treatment with MPTP. In the sub-acute MPTP regimen, MPTP (25 mg/kg) was injected intraperitoneally once per day from day 2 to day 7. Control mice received saline at the same dosage.
Four days after MPTP treatment, mice were perfused with 4% paraformaldehyde (PFA) and post-fixed with PFA and 30% sucrose, respectively. Next, fixed brains were cut into 30 μm sections and kept in 30% sucrose-ethylene glycol solutions at −20° C. On the day of staining, sections were rinsed with phosphate-buffered saline (PBS) and incubated with different primary antibodies, including anti-IBA-1 (DAKO, Carpinteria, Calif.), anti-GFAP (Millipore, Billerica, Mass.), anti-iNOS (Santa Cruz Biotechnology, Santa Cruz, Calif.), anti-3NT (Millipore), anti-4HNE (R&D Systems, Minneapolis, Minn.) and anti-gp91phox (Santa Cruz Biotechnology) for overnight at 4° C. Appropriate secondary antibodies (Alexa Fluor 488, 594, or 555 from Invitrogen, Carlsbad, Calif.) were used followed by incubation with 10 μg/ml Hoechst 33342 for 5 min at room temperature to stain the nucleus. Sections were viewed under a Nikon inverted fluorescence microscope (model TE-2000U; Nikon, Tokyo, Japan). […]
(Immunoblotting shows a protein as a band on a membrane.)

A further experiment concerns p67phox. The experiment in a line: LPS-induced p67phox protein expression in BV2 cells, Western blot. The experiment is classed as cell-based, mouse. Conditions: diapocynin 10 μM 30 min pretreatment, LPS 1 μg/ml 24 hr, back to basal level or below. As for the experimental part: (§1) Two cell models of neuroinflammation were used to evaluate the anti-neuroinflammatory property of diapocynin including the mouse BV2 microglial cell line, as well as primary microglia isolated from mouse brains. BV2 cells were obtained from the American Tissue Culture Collection. BV2 cells were maintained in RPMI containing 10% FBS and 100 units of pen/strep at 37° C. and 5% CO2. For treatments, RPMI containing 2% FBS and 100 units of pen/strep was used.
BV2 cell lysates containing equal amounts of protein were loaded in each lane and separated on a 10% SDS-PAGE gel. After separation, the protein was transferred to a nitrocellulose membrane. Non-specific binding sites were blocked with Li-cor blocking buffer for 45 min. The membranes were then treated with primary antibodies directed against NOS2 (mouse monoclonal 1:200) and p67phox (rabbit polyclonal 1:200). To confirm equal amounts of protein were loaded, membranes were also probed for β-actin with a β-actin antibody (dilution of 1:10,000). Secondary antibodies, donkey anti-mouse (Invitrogen) and conjugated anti-rabbit IgG (Rockland), were used at a dilution of 1:10,000 for 1 hr at room temperature. The membranes were imaged and captured using a Li-COR Odyssey infrared imaging system and software.

The next experiment concerns BV2 microglial cells. The experiment in a line: LPS-induced iNOS activation (nitrite, Griess reagent) in BV2 microglial cells. The conditions noted are these: 30 min pretreatment. It is filed as cell-based, mouse. The method, then: as §1
Inducible nitric oxide synthase (iNOS or NOS2) activation was assessed by measuring nitrite levels using Griess reagent in a 96-well format (70-72). Each well contained 40,000 BV2 cells or 100,000 primary microglia. BV2 cells were cultured in 150 μl of RPMI containing 10% FBS and pen/strep, and the primary microglia were cultured in DMEM-F12 containing 10% FBS, pen/strep, sodium pyruvate (S/P), Q, and NEAAs. One day after culturing, cells were replaced with 150 μl of their respective complete media containing only 2% FBS. Both cell types were pretreated with diapocynin (10 μM) and apocynin (100 μM) for 30 min before LPS stimulation (1 μg/ml LPS for BV2 cells and 100 ng/ml for primary microglia), and the plates were incubated at 37° C. After 24 hr at 37° C., 100 μl of supernatant were removed and placed into a new 96 well plate, to which 100 μl of Griess reagent were added. The plate was shaken on a plate shaker for 10 min before being read in a plate reader at 540 nm.
This example generally followed the cell culture, treatment, and analysis steps of Example 4 above.
Diapocynin diacetate (diapodiacetate or diapo diace) suppresses LPS-induced NOS-2 in BV2 microglial cells (FIG. 21). BV-2 cells were plated in 96 well plates, 40,000 cells per well, and treated in 150 μl of RPMI containing 2% heat inactivated FBS and penicillin/streptomycin. Diapo diacetate was used on the cells as a 30 min pretreatment, then LPS (1 μg/ml) was added. All treatments were allowed to incubate at 37° C. for 24 hr, starting from the addition of LPS. One hundred microliter aliquots of supernatant from each well were combined with 100 μl of Griess reagent (Sigma) in a 96-well plate and allowed to shake for 10 minutes before being read on the plate reader. The percent nitrite level for the treatments compared to the control was graphed.
In general terms: The Griess reaction detects nitrite, a stable product of nitric oxide.

One molecule from patent US8962600B2, “Neuroprotective compounds and their use” (The Medical College of Wisconsin, Inc., priority 2009, dated 2015) can be followed below.

What is called EC50 is the concentration that produces a half-maximal response. Consider `COc1cc(C(C)=O)cc(-c2cc(C(C)=O)cc(OC)c2O)c1O` [diapocynin], for which, in the experiment on gp91phox (diapocynin 300 mg/kg gavage, MPTP 25 mg/kg i.p., Western blot and DAB immunostaining), the “MPTP-induced expression of gp91phox in substantia nigra” value is “attenuated”. The “colocalization of gp91phox with IBA-1 positive cells” value in the experiment on gp91phox (double-labeling, mice treated with MPTP and diapocynin 300 mg/kg) is listed as “no colocalization”. Also, the “reducing LPS-induced p67phox protein expression” value with p67phox is listed as “extremely effective”. Moreover, in the experiment with BV2 microglial cells (BV2 cells, diapocynin 10 μM, LPS 1 μg/ml 24 hr), the “attenuating LPS-induced iNOS activation, compared with apocynin 100 μM” value is recorded as “just as effective”. For the same molecule, in the experiment with BV2 microglial cells (Mus musculus, BV-2 cells, LPS 1 μg/ml, Griess reagent, non-linear regression of dose response curve, read-out: EC50, block of LPS-induced iNOS activation (nitrite level)), the EC50 was found to be 7.76 µM.
